Source: article PMC2964311, “The Human Host Defense Peptide LL-37 Interacts with Neisseria meningitidis Capsular Polysaccharides and Inhibits Inflammatory Mediators Release” (PLoS ONE, 2010)
Values after ≈ are worked out from the molar mass of the structure shown.

Key:
[1] = tested on: THP-1 cells; assay: IL-6 release from THP-1 cells induced with meningococcal CPS pre-incubated with peptide (ELISA); format: cell-based, human; settings: THP-1 cells induced overnight with CPS-lpxA pre-incubated with 2 µg/ml peptide, 30 min, 37°C; Figure 1B
Description: Human THP-1 (macrophage-like cells) and murine RAW 264.7 (TLR4-sufficient), 23ScCr (TLR4-deficient) and HEK-TLR2/6/CD14 stably transfected cell lines were stimulated with meningococcal CPS polymers with or without pre-incubation with LL-37 and its analogs (Table 1). CPS polymers were purified from the LPS-deficient serogroup B Neisseria meningitidis lpxA mutant as well as other meningococcal serogroups A, B, C, W135 and Y. Purified CPS samples were freshly dissolved in pyrogen-free sterile H2O at 1 mg/ml stock concentration and vortexed for 2 min. Working CPS concentrations (ranging from 100 µg/ml to 50 ng/ml) were made in duplicate wells using sterile PBS by serial fold dilutions in the 96-well tissue culture plates (Becton Dickinson, Franklin Lakes, NJ) at 50 µl final volumes. […] Freshly grown THP-1 cells and HEK-TLR2/6 transfected cells as well as murine macrophages, each adjusted to 10^6 cell/ml and 250 µl aliquots were dispensed into each well at final 250×10^3 cell density in the designated 96-well plates. The plates were incubated overnight at 37°C with 5% CO2 and humidity. […]
(§1) The cytokines TNFα, IL-6 and CXCL10 (IP-10), released from THP-1 cells, and IL-8, released from HEK-TLR2 transfected cells stimulated with meningococcal CPS polymers, were quantified by DuoSet ELISA (R&D Systems) as previously described.

[2] = tested on: N. gonorrhoeae strain FA 19; settings: N. gonorrhoeae FA19 (non-encapsulated); assays in triplicate
Description: The peptides were dissolved in 0.01 % (v/v) acetic acid and stored at −20°C prior to use. Antibacterial assays were performed as described previously and used N. gonorrhoeae strain FA 19. All assays were performed in triplicate and values are reported as the minimal inhibitory concentration (MIC).

[3] = tested on: HEK-TLR2/6 stably transfected cells; assay: IL-8 release from HEK-TLR2/6 stably transfected cells induced with meningococcal CPS pre-incubated with peptide (ELISA); format: cell-based, human
Description: (§2) Human THP-1 (macrophage-like cells) and murine RAW 264.7 (TLR4-sufficient), 23ScCr (TLR4-deficient) and HEK-TLR2/6/CD14 stably transfected cell lines were stimulated with meningococcal CPS polymers with or without pre-incubation with LL-37 and its analogs (Table 1). CPS polymers were purified from the LPS-deficient serogroup B Neisseria meningitidis lpxA mutant as well as other meningococcal serogroups A, B, C, W135 and Y. Purified CPS samples were freshly dissolved in pyrogen-free sterile H2O at 1 mg/ml stock concentration and vortexed for 2 min. Working CPS concentrations (ranging from 100 µg/ml to 50 ng/ml) were made in duplicate wells using sterile PBS by serial fold dilutions in the 96-well tissue culture plates (Becton Dickinson, Franklin Lakes, NJ) at 50 µl final volumes. Cationic peptides (2, 4 or 8 µg/ml) or PBS equivalent volumes were added to designated wells and pre-incubated for 30 min at 37°C. Freshly grown THP-1 cells and HEK-TLR2/6 transfected cells as well as murine macrophages, each adjusted to 10^6 cell/ml and 250 µl aliquots were dispensed into each well at final 250×10^3 cell density in the designated 96-well plates. The plates were incubated overnight at 37°C with 5% CO2 and humidity. Supernatants from stimulated cells were harvested and stored at −20°C until use.
as §1

[4] = tested on: TLR2; assay: Neutralization of the TLR2-mediated response induced by phospholipid extract PL-lpxA; format: cell-based; settings: phospholipid extraction from LOS-deficient meningococci
[5] = tested on: THP-1 cells; assay: TNFα release from THP-1 cells induced with meningococcal CPS pre-incubated with peptide (ELISA); format: cell-based, human; settings: THP-1 cells induced overnight with serogroup B CPS-lpxA pre-incubated with 2 µg/ml peptide, 30 min, 37°C; Figure 1A
Description: Human THP-1 (macrophage-like cells) and murine RAW 264.7 (TLR4-sufficient), 23ScCr (TLR4-deficient) and HEK-TLR2/6/CD14 stably transfected cell lines were stimulated with meningococcal CPS polymers with or without pre-incubation with LL-37 and its analogs (Table 1). CPS polymers were purified from the LPS-deficient serogroup B Neisseria meningitidis lpxA mutant as well as other meningococcal serogroups A, B, C, W135 and Y. Purified CPS samples were freshly dissolved in pyrogen-free sterile H2O at 1 mg/ml stock concentration and vortexed for 2 min. Working CPS concentrations (ranging from 100 µg/ml to 50 ng/ml) were made in duplicate wells using sterile PBS by serial fold dilutions in the 96-well tissue culture plates (Becton Dickinson, Franklin Lakes, NJ) at 50 µl final volumes. […] Freshly grown THP-1 cells and HEK-TLR2/6 transfected cells as well as murine macrophages, each adjusted to 10^6 cell/ml and 250 µl aliquots were dispensed into each well at final 250×10^3 cell density in the designated 96-well plates. The plates were incubated overnight at 37°C with 5% CO2 and humidity. Supernatants from stimulated cells were harvested and stored at −20°C until use.
as §1

[6] = tested on: RAW 264.7 macrophages; assay: Nitric oxide release from RAW 264.7 macrophages induced with meningococcal CPS (Griess method); format: cell-based, murine
Description: as §2
Freshly grown adherent RAW 246.7 or 23ScCr (TLR4-deficient) macrophages were harvested, washed and re-suspended in Dulbecco's complete media, counted and adjusted to 10^6 cell/ml. 250 µl aliquots were then dispensed into each well of a 96-well plate at final 250×10^3 cell density prior to stimulation with purified CPS polymers with or without cationic peptides. The induced RAW 264.7 or 23ScCr macrophages were incubated overnight at 37°C with 5% CO2 and supernatants were harvested and saved. Nitric oxide release was quantified using the Greiss chemical method as previously described.

[7] = tested on: meningococcal CPS-lpxA polymers; assay: Electrophoretic mobility shift assay (EMSA) of CPS complex with LL-37, CD14 and LBP; format: binding, Neisseria meningitidis; settings: 5 µg LL-37, 0.5 µg rCD14, 0.5 µg rLBP, 3 h 37°C; 8% native PAGE, Western blot; Figure 8 lane 5
Description: To assess binding of CPS to LL-37 in the presence of human CD14 and LBP, an EMSA assay using native gel conditions was performed. Serogroup B CPS purified from a LOS-deficient meningococcal lpxA strain were dissolved in sterile H2O at 1 mg/ml concentration and 20 µl were transferred into an Eppendorf tube mixed with 10 µl (5 µg) of LL-37, 10 µl (0.5 µg) of human rCD14 and 10 µl (0.5 µg) of rLBP (R&D Systems) in […] and incubated for 3 h at 37°C. An aliquot of 7.5 µl of the mixed complexes were transferred into a new Eppendorf tube and mixed with an equal volume of sample buffer (0.1 M Tris-glycine buffer containing 20% glycerol and bromophenol blue) and 15 µl of the mixture were loaded on 8% native polyacrylamide gel electrophoresis (PAGE) without SDS as previously described. Electrophoresis was performed with Tris-glycine buffer pH 8.8 without SDS and run for 2 h at 4°C. The gel-shifting of CPS complexes was detected by Western blot method using biotinylated anti CD14 and anti LBP antibodies (R&D Systems) diluted 1∶1500× with blocking buffer.

[8] = tested on: TLR4-sufficient and TLR4-deficient murine macrophages; assay: CXCL10 (IP-10) release from murine macrophages induced with meningococcal CPS; format: cell-based
Description: as §2, with “The plates were incubated overnight at 37°C with 5% CO2 and humidity. Supernatants from stimulated cells were harvested and stored at −20°C until use.” left out
as §1

## CC[C@H](C)[C@H](NC(=O)[C@H](CCCCN)NC(=O)[C@H](CCC(=O)O)NC(=O)[C@H](CCCCN)NC(=O)[C@H](CO)NC(=O)[C@H](CCCCN)NC(=O)[C@H](CCCNC(=N)N)NC(=O)[C@H](Cc1ccccc1)NC(=O)[C@H](Cc1ccccc1)NC(=O)[C@H](CC(=O)O)NC(=O)CNC(=O)[C@H](CC(C)C)NC(=O)[C@@H](N)CC(C)C)C(=O)NCC(=O)N[C@@H](CCCCN)C(=O)N[C@@H](CCC(=O)O)C(=O)N[C@@H](Cc1ccccc1)C(=O)N[C@@H](CCCCN)C(=O)N[C@@H](CCCNC(=N)N)C(=O)N[C@H](C(=O)N[C@H](C(=O)N[C@@H](CCC(N)=O)C(=O)N[C@@H](CCCNC(=N)N)C(=O)N[C@H](C(=O)N[C@@H](CCCCN)C(=O)N[C@@H](CC(=O)O)C(=O)N[C@@H](Cc1ccccc1)C(=O)N[C@@H](CC(C)C)C(=O)N[C@@H](CCCNC(=N)N)C(=O)N[C@@H](CC(N)=O)C(=O)N[C@@H](CC(C)C)C(=O)N[C@H](C(=O)N1CCC[C@H]1C(=O)N[C@@H](CCCNC(=N)N)C(=O)N[C@H](C(=O)N[C@@H](CCC(=O)O)C(=O)N[C@@H](CO)C(=O)O)[C@@H](C)O)C(C)C)[C@@H](C)CC)C(C)C)[C@@H](C)CC [LL-37]
[1]
  IL-6 release: inhibited
[2]
  MIC: 7.8 µg/mL (≈ 1.74 µM)
[3]; HEK-TLR2/6 cells induced with CPS-lpxA pre-incubated with 2 µg/ml peptide, Figure 1C
  IL-8 release: inhibited
[3]; HEK-TLR2/6 cells, serogroup A CPS pre-incubated with 4 µg/ml peptide, Figure 2A
  Neutralization of CPS-induced IL-8 release: neutralized
[3]; HEK/TLR2/6 cells stimulated with different meningococcal CPS structures pre-incubated with LL-37
  IL-8 release: significant reduction in IL-8 release
[3]; HEK/TLR2/6 cells, vaccine grade serogroup A CPS (MAPS) pre-incubated with 2 µg/ml of LL-37, Figure 2B
  IL-8 release induced by MAPS: significantly reduced
[4]
  Neutralization of biologic activity of PL-lpxA: failed to neutralize
[5]
  TNFα release: inhibited
[6]; RAW 264 macrophages, complexes with CD14, LBP and LL-37, data not shown
  Nitric oxide release by CPS-lpxA complexes used in gel-shift: significant reduction in nitric oxide release
[6]; RAW 264 pre-treated with 10 µg/ml LL-37 for 30 min, washed, then CPS-lpxA 50 µg/ml, nitric oxide read-out, Figure S2
  Cytokine release after pre-treatment of macrophages: did not affect cytokine release
[6]; RAW 264.7 induced with CPS-lpxA pre-incubated with 2 µg/ml peptide, nitrite after 24 h, Figure 1D
  Nitric oxide release: inhibited
[7]
  Gel-shift of CPS-lpxA-CD14-LBP complexes: caused a gel-shift
[8]
  CXCL10 (IP-10) release: inhibited
